{"source": "PubChem BioAssay (NCI)", "assay_in_all_cases": "NCI tumour cell line growth inhibition, 48 h", "key": {"MOLT-4 leukemia": {"tested_on": "MOLT-4 leukemia"}, "NCI-H226 lung": {"tested_on": "NCI-H226 lung"}, "NCI-H23 lung": {"tested_on": "NCI-H23 lung"}, "NCI-H460 lung": {"tested_on": "NCI-H460 lung"}, "NCI-H522 lung": {"tested_on": "NCI-H522 lung"}, "OVCAR-3 ovarian": {"tested_on": "OVCAR-3 ovarian"}, "OVCAR-4 ovarian": {"tested_on": "OVCAR-4 ovarian"}, "OVCAR-5 ovarian": {"tested_on": "OVCAR-5 ovarian"}, "OVCAR-8 ovarian": {"tested_on": "OVCAR-8 ovarian"}, "PC-3 prostate": {"tested_on": "PC-3 prostate"}, "RPMI-8226 leukemia": {"tested_on": "RPMI-8226 leukemia"}, "RXF 393 renal": {"tested_on": "RXF 393 renal"}, "SF-268 CNS": {"tested_on": "SF-268 CNS"}, "SF-295 CNS": {"tested_on": "SF-295 CNS"}, "SF-539 CNS": {"tested_on": "SF-539 CNS"}, "SK-MEL-28 melanoma": {"tested_on": "SK-MEL-28 melanoma"}, "SK-MEL-5 melanoma": {"tested_on": "SK-MEL-5 melanoma"}, "SK-OV-3 ovarian": {"tested_on": "SK-OV-3 ovarian"}, "SN12C renal": {"tested_on": "SN12C renal"}, "SNB-19 CNS": {"tested_on": "SNB-19 CNS"}, "SNB-75 CNS": {"tested_on": "SNB-75 CNS"}, "SR leukemia": {"tested_on": "SR leukemia"}, "SW-620 colon": {"tested_on": "SW-620 colon"}, "T-47D breast": {"tested_on": "T-47D breast"}, "TK-10 renal": {"tested_on": "TK-10 renal"}, "U251 CNS": {"tested_on": "U251 CNS"}, "UACC-257 melanoma": {"tested_on": "UACC-257 melanoma"}, "UACC-62 melanoma": {"tested_on": "UACC-62 melanoma"}, "UO-31 renal": {"tested_on": "UO-31 renal"}}, "note": "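Method: 48-hour compound exposure of cells in 96-well plates, five concentrations, linear interpolation of endpoints. Here, GI50 denotes the concentration required for 50% inhibition of growth. The concentration for full growth arrest is given as TGI.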", "data": [{"smiles": "Cc1ccc(NC(=O)[C@]23CCC(C)(C)CC2C2=CCC4[C@@]5(C)C[C@@H](O)[C@H](O)[C@@](C)(CO)C5CC[C@@]4(C)[C@]2(C)CC3)cc1", "note": "(some centres not stated)", "values": [{"measurement": "TGI", "setting": "MOLT-4 leukemia", "value": 50.7, "unit": "µM"}, {"measurement": "GI50", "setting": "NCI-H226 lung", "value": 11, "unit": "µM"}, {"measurement": "TGI", "setting": "NCI-H226 lung", "value": 23.8, "unit": "µM"}, {"measurement": "GI50", "setting": "NCI-H23 lung", "value": 12.7, "unit": "µM"}, {"measurement": "TGI", "setting": "NCI-H23 lung", "value": 26.8, "unit": "µM"}, {"measurement": "GI50", "setting": "NCI-H460 lung", "value": 10.5, "unit": "µM"}, {"measurement": "TGI", "setting": "NCI-H460 lung", "value": 23.1, "unit": "µM"}, {"measurement": "GI50", "setting": "NCI-H522 lung", "value": 12.9, "unit": "µM"}, {"measurement": "TGI", "setting": "NCI-H522 lung", "value": 26.6, "unit": "µM"}, {"measurement": "GI50", "setting": "OVCAR-3 ovarian", "value": 13.5, "unit": "µM"}, {"measurement": "TGI", "setting": "OVCAR-3 ovarian", "value": 27.3, "unit": "µM"}, {"measurement": "GI50", "setting": "OVCAR-4 ovarian", "value": 7.81, "unit": "µM"}, {"measurement": "TGI", "setting": "OVCAR-4 ovarian", "value": 23.3, "unit": "µM"}, {"measurement": "GI50", "setting": "OVCAR-5 ovarian", "value": 12.8, "unit": "µM"}, {"measurement": "TGI", "setting": "OVCAR-5 ovarian", "value": 25.7, "unit": "µM"}, {"measurement": "GI50", "setting": "OVCAR-8 ovarian", "value": 14.2, "unit": "µM"}, {"measurement": "TGI", "setting": "OVCAR-8 ovarian", "value": 35.5, "unit": "µM"}, {"measurement": "GI50", "setting": "PC-3 prostate", "value": 5.46, "unit": "µM"}, {"measurement": "TGI", "setting": "PC-3 prostate", "value": 21.5, "unit": "µM"}, {"measurement": "GI50", "setting": "RPMI-8226 leukemia", "value": 4.79, "unit": "µM"}, {"measurement": "TGI", "setting": "RPMI-8226 leukemia", "value": 25.8, "unit": "µM"}, {"measurement": "GI50", "setting": "RXF 393 renal", "value": 2.9, "unit": "µM"}, {"measurement": "TGI", "setting": "RXF 393 renal", "value": 11.6, "unit": "µM"}, {"measurement": "GI50", "setting": "SF-268 CNS", "value": 10.2, "unit": "µM"}, {"measurement": "TGI", "setting": "SF-268 CNS", "value": 32.2, "unit": "µM"}, {"measurement": "GI50", "setting": "SF-295 CNS", "value": 8.28, "unit": "µM"}, {"measurement": "TGI", "setting": "SF-295 CNS", "value": 21.4, "unit": "µM"}, {"measurement": "GI50", "setting": "SF-539 CNS", "value": 12.7, "unit": "µM"}, {"measurement": "TGI", "setting": "SF-539 CNS", "value": 25.6, "unit": "µM"}, {"measurement": "GI50", "setting": "SK-MEL-28 melanoma", "value": 13, "unit": "µM"}, {"measurement": "TGI", "setting": "SK-MEL-28 melanoma", "value": 26, "unit": "µM"}, {"measurement": "GI50", "setting": "SK-MEL-5 melanoma", "value": 6.45, "unit": "µM"}, {"measurement": "TGI", "setting": "SK-MEL-5 melanoma", "value": 19.3, "unit": "µM"}, {"measurement": "GI50", "setting": "SK-OV-3 ovarian", "value": 13.9, "unit": "µM"}, {"measurement": "TGI", "setting": "SK-OV-3 ovarian", "value": 34, "unit": "µM"}, {"measurement": "GI50", "setting": "SN12C renal", "value": 10.9, "unit": "µM"}, {"measurement": "TGI", "setting": "SN12C renal", "value": 23.1, "unit": "µM"}, {"measurement": "GI50", "setting": "SNB-19 CNS", "value": 16.5, "unit": "µM"}, {"measurement": "TGI", "setting": "SNB-19 CNS", "value": 43.4, "unit": "µM"}, {"measurement": "GI50", "setting": "SNB-75 CNS", "value": 1.88, "unit": "µM"}, {"measurement": "TGI", "setting": "SNB-75 CNS", "value": 31.4, "unit": "µM"}, {"measurement": "GI50", "setting": "SR leukemia", "value": 5.58, "unit": "µM"}, {"measurement": "TGI", "setting": "SR leukemia", "value": "> 100", "unit": "µM"}, {"measurement": "GI50", "setting": "SW-620 colon", "value": 12.5, "unit": "µM"}, {"measurement": "TGI", "setting": "SW-620 colon", "value": 27.5, "unit": "µM"}, {"measurement": "GI50", "setting": "T-47D breast", "value": 6.94, "unit": "µM"}, {"measurement": "TGI", "setting": "T-47D breast", "value": 20.6, "unit": "µM"}, {"measurement": "GI50", "setting": "TK-10 renal", "value": 16.3, "unit": "µM"}, {"measurement": "TGI", "setting": "TK-10 renal", "value": 32, "unit": "µM"}, {"measurement": "GI50", "setting": "U251 CNS", "value": 12.8, "unit": "µM"}, {"measurement": "TGI", "setting": "U251 CNS", "value": 25.5, "unit": "µM"}, {"measurement": "GI50", "setting": "UACC-257 melanoma", "value": 12.9, "unit": "µM"}, {"measurement": "TGI", "setting": "UACC-257 melanoma", "value": 27.5, "unit": "µM"}, {"measurement": "GI50", "setting": "UACC-62 melanoma", "value": 6.8, "unit": "µM"}, {"measurement": "TGI", "setting": "UACC-62 melanoma", "value": 20.6, "unit": "µM"}, {"measurement": "GI50", "setting": "UO-31 renal", "value": 3.54, "unit": "µM"}, {"measurement": "TGI", "setting": "UO-31 renal", "value": 17, "unit": "µM"}]}]}
